Assay results: patent US12383536B2, “CRF receptor antagonists and methods of use” (Neurocrine Biosciences, Inc., priority 2019, dated 2025)

Molecular target: T1, CRF1 receptor (Homo sapiens, UniProt P34998)
T1 sequence (P34998 24-415): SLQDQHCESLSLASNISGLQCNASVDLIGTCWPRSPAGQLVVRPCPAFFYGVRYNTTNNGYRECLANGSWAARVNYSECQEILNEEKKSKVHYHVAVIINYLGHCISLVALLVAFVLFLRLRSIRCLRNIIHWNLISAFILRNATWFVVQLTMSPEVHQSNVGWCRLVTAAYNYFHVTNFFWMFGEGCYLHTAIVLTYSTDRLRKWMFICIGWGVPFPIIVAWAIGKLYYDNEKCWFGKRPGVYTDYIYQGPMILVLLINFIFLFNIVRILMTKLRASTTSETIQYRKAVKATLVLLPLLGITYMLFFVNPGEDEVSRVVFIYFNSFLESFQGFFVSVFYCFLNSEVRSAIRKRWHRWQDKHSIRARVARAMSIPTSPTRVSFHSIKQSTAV
Assay: CRF1 receptor antagonist activity: kinetically derived affinity (Ki = k-1/k1), procedures of Fleck et al.
Format: binding
Details: kinetically derived affinity calculated from association (k1) and dissociation (k-1) rate constants; read-out: kinetic Ki
Description: As reported in Fleck et al. (J. Pharmacology and Experimental Therapeutics, 341(2):518-531, 2012) (hereinafter “Fleck et al.” and incorporated by reference in it's entirely) the activity of a CRF1 receptor antagonists may be expressed as the kinetically derived affinity (Ki) calculated from the association (k1) and dissociation (k−1) rate constants by the following equation: Ki=k−1/k1
Compound 1 was evaluated according to these procedures, and the kinetic Ki was determined to be 1.14.

C#CCN(c1nc(-c2cc(C)c(OC)cc2Cl)c(C)s1)C(CC1CC1)c1ccc(CO)c(F)c1 (racemic) [Compound 1, racemic {4-[1-{[4-(2-chloro-4-methoxy-5-methylphenyl)-5-methyl-1,3-thiazol-2-yl](prop-2-yn-1-yl)amino}-2-cyclopropylethyl]-2-fluorophenyl}methanol]
Ki: 1.14 nM
